Laboratory results reported in patent US20100190694A1, “Methods for identifying patients who will respond well to cancer treatment” (priority 2009, published 2010).

Tested on: advanced solid tumors
Assay: Phase I study: efficacy by RECIST, treatment duration, TTP
Type: in vivo, human
Details: Pat 101-6, esophageal adenoca, before study
Excerpt: Phase I dose-escalation, multi-center study with the objectives to assess: • maximum tolerated dose and dose limiting toxicities (DLT) of Bel in combination with FU • impact of Bel on expression of TS, dihydropyrimidine dehydrogenase (DPD), and p21, in tumor and non-tumor surrogate tissue (peripheral blood mononuclear cells; PBMC) • preliminary anti-tumor activity of Bel in combination with FU • impact of Bel on ECG parameters • pharmacokinetics (PK) of Bel when given in combination with FU
Treatment cycles of 21 days included Bel alone in cycle 1, and Bel in combination with FU in all subsequent cycles (FIG. 4). Treatment was to continue until significant treatment-related toxicity or progressive disease. […]
DLTs, i.e. grade ¾ non-hematologic toxicities and grade 4 neutropenia or thrombocytopenia, were determined in cycles 1 and 2. Safety was assessed by NCI CTC (v. 3) and efficacy by RECIST criteria. Expression of TS, DPD, and p21 mRNA was measured by RTQ-PCR in PBMC (20 patients at baseline, and pre-dosing, 6 and 24-hours post-dosing, on days 1 and 4 in cycle 1) and in tumor biopsies (8 patients at baseline and once on days 4 or 5 in cycle 1). Results were expressed as gene expression relative to actin (i.e. TS/Actin Relative Gene Expression, DPD/Actin Relative Gene Expression, and p21/Actin Relative Gene Expression).

CC(=O)O[C@H]1C(=O)[C@@]2(C)[C@H]([C@H](OC(=O)c3ccccc3)[C@]3(O)C[C@H](OC(=O)[C@H](O)[C@@H](NC(=O)c4ccccc4)c4ccccc4)C(C)=C1C3(C)C)[C@]1(OC(C)=O)CO[C@@H]1C[C@@H]2O [paclitaxel]
TTP on most recent prior line of therapy: (12.0 weeks)
